# Measurements reported in PubChem BioAssay AID651717 (Broad Institute, 2012).
# Tested on: mESC Bmi1-luciferase reporter, firefly/renilla ratio, 24 h
# Assay: compounds raising Bmi1 reporter signal – mouse embryonic stem cells, luciferase, cherry-pick, esBAF inhibitor project, dose response (AID 651717);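 further: luciferase knocked into Bmi1 locus with EF-1a renilla as cell number control; rising ratio signals esBAF inhibition which derepresses Bmi1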
row,SMILES,AC40 [µM]
1,COc1cc(CNc2ccc(N3CCN(C(C)=O)CC3)cc2)ccc1OCc1ccc(F)cc1,3.93
2,Cc1noc(C)c1COC(=O)c1cc(C)n(-c2ccccc2)c1C,10
3,CC1(C)Cc2c(c(N3CCCC3)nc3sc(C(=O)Nc4ccccc4)c(N)c23)CO1,6.24
4,COc1ccccc1C(=O)Oc1ccccc1C(=O)Nc1ccccc1,5.18
5,N#Cc1ccc(-c2cn3c(n2)SCC3)cc1,4.82
6,CO[C@@H]1CN(C)C(=O)c2cc(NC(=O)c3nc4ccccc4s3)ccc2OC[C@@H](C)N(Cc2cccnc2)C[C@H]1C,19.8
7,Cc1ccc(C)c(OCc2nc3ccccc3[nH]2)c1,5.29
8,Cc1nc(NCc2ccccc2)sc1C(=O)Nc1ccccc1,8.44
9,CCCN1CCN(CCCNC(=O)c2ccc3nc(N4CCCCC4)sc3c2)CC1,13.3
10,COc1ccc(/C=N/NC(=O)c2cccs2)c2ccccc12,9.35
11,Cc1ccc(C(=O)Cc2ccccc2)c(O)c1,6.34
12,c1csc(Cc2nc3ccccc3[nH]2)c1,16.2
13,CO[C@H]1CN(C)C(=O)c2cc(NC(=O)NC(C)C)ccc2OC[C@H](C)N(Cc2ccc(-c3ccccn3)cc2)C[C@@H]1C,0.871
14,Cc1ccnc(NC(=O)c2ccc(Cl)c(S(=O)(=O)N3CCCCC3)c2)c1,11.7
15,Nc1n[nH]c(N)c1N=Nc1ccc(Cl)cc1,6.31
16,O=C(NCCc1ccc(F)cc1)c1ccc2c(=O)n3c(nc2c1)CCC3,5.89
17,Cc1ccc2c(COC(=O)C34CC5CC(CC(C5)C3)C4)cc(=O)oc2c1,3.95
18,O=C(N/N=C/c1ccccc1)c1ccc(NC(=O)c2ccc(F)cc2)cc1,1.46
19,COc1cc2c(cc1NC(=O)C(C)OC(=O)/C=C/c1ccc(OC(F)F)cc1)oc1ccccc12 (configuration not stated),3.91
20,COc1ccc2c(c1)nc(-c1cccc(Br)c1)c(=O)n2C(c1ccccn1)c1nc2ccccc2[nH]1 (configuration not stated),2.94
21,CCc1c(C(=O)OCc2ccccc2)[nH]c(C)c1C,2.03
22,O=C(Nc1cccc2ccccc12)OCc1ccccc1,3.96
23,Cc1ccc2oc3ccccc3c(=O)c2c1,7.05
24,Cc1ccc(NC(=O)C2CC3CCC2C3)c(Br)c1 (configuration not stated),1.22
25,C#CCn1cccc(C(=O)Nc2ccc(OC)cc2)c1=O,10.7

row,SMILES,AC40 [µM]
1,CCCN1C(=O)c2ccc(C(=O)Nc3ccc4c(c3)OCO4)cc2C1=O,9.64
2,NC(=O)c1ccc(CSc2nc3ccccc3s2)cc1,4.64
3,CN(C)c1ccc(N=Nc2ccccc2C(=O)OCC(=O)Nc2ccccc2C(F)(F)F)cc1,4.61
4,CC1CCCN(C(=O)c2cc3c(=O)n4ccccc4nc3s2)C1 (configuration not stated),14.1
5,O/N=C\c1cnc(N2CCN(c3ccccc3)CC2)s1,2.47
6,COc1cccc(/C=C2\SC(N3CCCC(C)C3)=NC2=O)c1OC (configuration not stated),9.58
7,c1ccc(Cn2c(-c3cncs3)nc3ccccc32)cc1,11.8
8,Oc1ccc(/C=N/Nc2nc(-c3cccnc3)nc3ccccc23)c(O)c1,11.2
9,COc1ccc2nc3sc(C(=O)NCCN4CCc5ccccc5C4)cc3cc2c1,5.77
10,COCOCCn1cc(CN2CCS(=O)(=O)N(Cc3ccc(-c4ccc(Cl)nc4)cc3)C(CC(C)C)C2=O)nn1 (configuration not stated),34.2
11,COc1cccc(CN(C)C(=O)c2ccc(COc3ccc(Cl)cc3)cc2)c1OC,5.66
12,COc1cc(C(=O)Oc2ccccc2/C=N/NC(=O)c2ccc(Cl)cc2Cl)cc(OC)c1OC,1.1
13,COc1cccc(NC(=O)c2sc3nc4n(c(=O)c3c2C)CCC4)c1,2.73
14,Cc1cccc(OCc2nc3ccccc3n2C)c1,6.7
15,c1ccc(Nc2nc3ccccc3n3nnnc23)cc1,7.2
16,COc1ccc2c(c1OC)C(=O)N1c3ccccc3SC21 (configuration not stated),0.438
17,O=C(c1ccc2ccccc2c1)N1CCN(Cc2ccccc2)CC1,9.83
18,Cc1cc2ncn(C(=O)N3CCC(C)CC3)c2cc1C,7.84
19,O=C(O)c1ccc2noc(-c3ccccc3)c2c1,1.54
20,CCc1ccccc1NC(=O)c1cc(-c2cccc(O)c2)on1,5.03
21,Nc1c(Cl)cc(N=Nc2ccccc2)cc1Cl,3.27
22,O=C(CC(=O)c1ccccc1)Nc1ccccc1,3.94
23,O=C(N/N=C/c1cnc2ccccc2n1)c1cccc(F)c1,4.89
24,CN(C)c1ccc(CN(C(=O)c2cc3ccccc3oc2=O)C2CCS(=O)(=O)C2)cc1 (configuration not stated),3.62
25,c1ccc(-c2cnnc(N3CCCCC3)n2)cc1,1.99

row,SMILES,AC40 [µM]
1,c1ccc(Nc2ccc3ccccc3c2)cc1,3.83
2,Cc1ccc(SCCN2CCC(C)CCC2=O)cc1 (configuration not stated),2.74
3,COc1ccc(-c2ccc(OC)cc2)cc1,4.64
4,Cc1cccc(NC(=O)Nc2cccc(F)c2)n1,8.39
5,CC(O)(c1ccccc1)c1nc(-c2cccc(C(=O)O)c2)cs1 (configuration not stated),4.13
6,Cc1ccc(OCn2c(=O)sc3ccccc32)cc1,6.12
7,N#CC(c1ccccc1O)N1N=C(c2ccccc2)CC1c1ccccc1 (configuration not stated),1.43
8,CC(=O)O/N=C(\N)c1ccc(-c2csnn2)cc1,29.5
9,O=C(Nc1ccc(N2CCCC2)cc1)c1cccc(Cl)c1Cl,28.2
10,Fc1ccc2nc(-c3ccccc3)ccc2c1,1.14
11,CC(=O)Nc1ccc2c(c1)Cc1c(F)cccc1-2,0.977
12,O=C1CC(/C=C/c2ccncc2)=Nc2ccccc2N1,6.57
13,COc1ccc(-c2coc3cc(OC(C)=O)ccc3c2=S)cc1,0.794
14,Cc1ccc2c3c([nH]c2c1C)-c1nonc1CC3,4.53
15,O=C(Nc1ccc(Cl)c(Cl)c1)c1ccncc1,6.32
16,Cc1cccc(N=[N+]([O-])c2cccc(C)n2)n1,6.4
17,C/C(=C\C(=O)c1cccnc1)Nc1ccc(C)c(C)c1,3.36
18,O=C(Nc1cccc(-c2nc3ccccc3s2)c1)c1cc(-n2cnnc2)ccc1Cl,7.62
19,Cc1ccc(N(Cc2ccccc2)C(=O)c2cccc(S(=O)(=O)N3CC(C)OC(C)C3)c2)cc1 (configuration not stated),29.6
20,COc1ccc(NC(=O)c2ccc3ccccc3c2OC)cc1,2.56
21,Cc1ccc(C(=O)CN2C(=O)NC3(CCCCCC3)C2=O)c(C)c1,1.63
22,Cc1noc(C)c1-c1csc(N2CCC(C(N)=O)CC2)n1,0.444
23,CCCCc1nc2cc(C(=O)N3CCCCC3C(=O)OC)ccc2o1 (configuration not stated),13
24,CCCOc1ccc(NC(=O)C2CC(=O)N/C(=N/N=C(C)/C=C/c3ccc(N(C)C)cc3)S2)cc1 (configuration not stated),6
25,O=C(Nc1cccc2ccccc12)c1cnccn1,6.43

row,SMILES,AC40 [µM]
1,Clc1ccc(-c2nnc(-c3cccc4ccccc34)o2)cc1,1.79
2,CCn1c(SCc2ccccc2Cl)nc2ccccc21,5.49
3,CC(C)Cc1ccc(-c2ccc3nccn3c2)cc1,1.94
4,CC1CCCC(C)N1C(=O)c1cc(-c2ccc(Cl)c(Cl)c2)on1 (configuration not stated),6.88
5,CCCn1cnc2c(SCCc3ccccc3)nc(N)nc21,7.67
6,O=C(Nc1ccccc1Cl)c1cc(=O)c2ccccc2o1,0.468
7,CO[C@H]1CN(C)C(=O)c2ccc(NC(=O)Nc3ccc4c(c3)OCO4)cc2OC[C@@H](C)NC[C@@H]1C,2.76
8,O=C(CCc1nnc(C2(c3ccc(Cl)cc3)CCC2)o1)N1CCCC1,3.99
9,COc1cc(OC)c2c(-c3cccc(/C=C/c4ccc(F)cc4)c3)cc(=O)oc2c1,3.49
10,COC(=O)c1sccc1NC(=O)c1ccc(OC)cc1,6.81
11,CCS(=O)(=O)N1Cc2ccccc2CC1C(=O)Nc1cccc(OC)c1 (configuration not stated),8.28
12,CCN(CC)C(=O)Oc1ccc2c(=O)c(-c3ccc(OC)cc3)coc2c1,3.7
13,CN(c1cccc(NC(=O)c2ccc(C(C)(C)C)cc2)c1)S(C)(=O)=O,2.97
14,COc1ccc(F)cc1-c1cc(C(=O)Nc2cccnc2)[nH]n1,3.06
15,O=C(Nc1ccc(Nc2ccccc2)cc1)Nc1ccccc1Cl,4.5
16,Cc1cccc(OCc2nc3ccccc3c(=O)n2N)c1,7.24
17,c1ccc(-c2ccc3[nH]ccc3c2)cc1,3.07
18,COC(=O)/C(=C1\Oc2ccc(C(C)(C)C)cc2S1)C(F)(F)F,1.45
19,O=C(Nc1ccc(Oc2cccnc2)cc1)c1ccccc1F,12.7
20,COc1ccccc1C(=O)Nn1cnc2ccccc2c1=O,8.5
21,COc1cccc(N(C(=O)c2cccs2)c2nc3ccccc3s2)c1,3.76
22,COC(=O)c1c(-c2ccc(SC)cc2)sc2ccccc12,14.3
23,CN(CCc1ccccn1)C(=O)CCc1nnc(CCCc2ccccc2)o1,4.93
24,CC(C)c1ccc(/C=N/NC(=O)CCNC(=O)c2ccccc2)cc1,22.8
25,CC(C)c1ccc(C(O)c2cnc(C(C)C)n2C)cc1 (configuration not stated),4.11

row,SMILES,AC40 [µM]
1,Cc1ccc(C)c(NC(=O)c2cc(-c3cc(C)c(C)cc3O)n[nH]2)c1,3.77
2,CCCCCn1c(=O)c(C(=O)Nc2ccccc2Cl)c(O)c2ccccc21,5.14
3,CN(C)S(=O)(=O)c1cccc(C(=O)Nc2ccc(Cl)cn2)c1,5.04
4,CC(=O)c1ccc(NC(=O)c2cc(C)nc3ccccc23)cc1,3.55
5,CC(C)c1ccc(CNNC(=O)c2ccccc2)cc1,2.18
6,CC(C)c1ccc(NC(=O)c2cccnc2)cc1,2.6
7,Nc1ccc2c(c1)Cc1cc(N)c(Cl)cc1-2,3.41
8,CCCC1c2ccc(C)n2CCN1C(=O)Nc1ccccc1Cl (configuration not stated),6.07
9,O=C(c1ccc2ccccc2c1)N1CCc2ccccc21,8.41
10,O=C(NNC(=O)c1cccc2ccccc12)c1ccc2c(c1)OCO2,17.8
11,O=C(Nc1nc2ccc(Cl)cc2s1)c1cccc(N2C(=O)CCC2=O)c1,3.25
12,CN(C)c1ccc(CNc2nc3cc(-c4ccc(F)cc4)sc3c(=O)n2C)cc1,2.12
13,CCCNC(=O)Nc1ccc2c(c1)C(=O)N(C)C[C@H](OC)[C@@H](C)CN(Cc1ccc(-c3ccccn3)cc1)[C@H](C)CO2,1.73
14,O=C(Nc1ccccn1)c1c(O)c2cccc3c2n(c1=O)CCC3,18.4
15,CCC(=O)n1nc(-c2ccc(Cl)cc2)nc1SC,3.71
16,CC(=O)c1sc(Nc2ccc(Oc3ccccc3)cc2)nc1C,2.08
17,O=C(Nc1ccc(SC(F)F)cc1)C12CCC(CC1)C2,5.66
18,Cc1cc(C)cc(N(CC(=O)Nc2ccc(-c3nc4ccc(C)cc4s3)cc2)S(C)(=O)=O)c1,4.11
19,c1ccc(-c2ccc(-c3ccccc3)[nH]2)cc1,1.44
20,O=C(c1cccs1)N(C(=O)c1cccs1)c1ccc(Br)cn1,1.09
21,O=C(NC1CCCCC1)c1ccc2ccccc2c1O,1.27
22,c1ccc(CCNc2ccc3c(c2)Cc2ccccc2-3)nc1,1.53
